Key:
[1] = molecular target: LRRK2 (Homo sapiens, UniProt Q5S007); assay: NanoBRET-based ternary binding and cooperativity assay; parameters: host or cells: HEK293 (digitonin-permeabilized); conditions: permeabilized HEK293 cells, without VCB; read-out: IC50 LRRK2 engagement in the absence of VCB
Description: The HEK293 cells were transfected with LRRK2-NanoLuc fusion vector (Promega, NV3401) following Promega's protocol and seeded into white 384-well plate (Corning3570) at a density of 6000 cells/well. The cells were then treated with 50 μg/mL of digitonin, 125 nM of LRRK2 tracer, testing compounds at decreasing concentrations (11 concentrations with 2-fold serial dilution starting from 10 μM) or testing compounds and VCB mix (11 concentrations with 2-fold serial dilution starting from 10 μM compound for the compound. The first 6 concentrations of VCB start from 32 μM with 2-fold dilution, the last 5 concentrations of VCB keep at 1 μM), and NanoBRET NanoGlo Substrate (Promega) at concentration recommended by the manufacturer's protocol. In the maximum signal control samples (DMSO control), DMSO was added instead of testing compounds. In the minimum signal control samples (no tracer control), DMSO and LRRK2 tracer dilution buffer were used to replace testing compounds and LRRK2 tracer separately. The filtered luminescence was measured within 10 min following addition of the substrate on a PHERAstar (BMG LABTECH) plate reader equipped with a 450-nm bandpass filter (donor) and a 600-nm long pass filter (acceptor). The fractional occupancy was calculated according to the equation: fractional occupancy=(mBRETtesting compound−mBRETno tracer control)/(mBRETDMSO control−mBRETno tracer control).

[2] = molecular target: T1, LRRK2^G2019S (Mus musculus, UniProt Q5S006, G2019S); assay: Western blot LRRK2 degradation in LRRK2^G2019S MEFs; format: cell-based; conditions: dose response
T1 construct: endogenous in cells; host or cells: LRRK2[G2019S] mouse embryonic fibroblasts (MEFs)
T1 sequence (Q5S006 whole entry G2019S): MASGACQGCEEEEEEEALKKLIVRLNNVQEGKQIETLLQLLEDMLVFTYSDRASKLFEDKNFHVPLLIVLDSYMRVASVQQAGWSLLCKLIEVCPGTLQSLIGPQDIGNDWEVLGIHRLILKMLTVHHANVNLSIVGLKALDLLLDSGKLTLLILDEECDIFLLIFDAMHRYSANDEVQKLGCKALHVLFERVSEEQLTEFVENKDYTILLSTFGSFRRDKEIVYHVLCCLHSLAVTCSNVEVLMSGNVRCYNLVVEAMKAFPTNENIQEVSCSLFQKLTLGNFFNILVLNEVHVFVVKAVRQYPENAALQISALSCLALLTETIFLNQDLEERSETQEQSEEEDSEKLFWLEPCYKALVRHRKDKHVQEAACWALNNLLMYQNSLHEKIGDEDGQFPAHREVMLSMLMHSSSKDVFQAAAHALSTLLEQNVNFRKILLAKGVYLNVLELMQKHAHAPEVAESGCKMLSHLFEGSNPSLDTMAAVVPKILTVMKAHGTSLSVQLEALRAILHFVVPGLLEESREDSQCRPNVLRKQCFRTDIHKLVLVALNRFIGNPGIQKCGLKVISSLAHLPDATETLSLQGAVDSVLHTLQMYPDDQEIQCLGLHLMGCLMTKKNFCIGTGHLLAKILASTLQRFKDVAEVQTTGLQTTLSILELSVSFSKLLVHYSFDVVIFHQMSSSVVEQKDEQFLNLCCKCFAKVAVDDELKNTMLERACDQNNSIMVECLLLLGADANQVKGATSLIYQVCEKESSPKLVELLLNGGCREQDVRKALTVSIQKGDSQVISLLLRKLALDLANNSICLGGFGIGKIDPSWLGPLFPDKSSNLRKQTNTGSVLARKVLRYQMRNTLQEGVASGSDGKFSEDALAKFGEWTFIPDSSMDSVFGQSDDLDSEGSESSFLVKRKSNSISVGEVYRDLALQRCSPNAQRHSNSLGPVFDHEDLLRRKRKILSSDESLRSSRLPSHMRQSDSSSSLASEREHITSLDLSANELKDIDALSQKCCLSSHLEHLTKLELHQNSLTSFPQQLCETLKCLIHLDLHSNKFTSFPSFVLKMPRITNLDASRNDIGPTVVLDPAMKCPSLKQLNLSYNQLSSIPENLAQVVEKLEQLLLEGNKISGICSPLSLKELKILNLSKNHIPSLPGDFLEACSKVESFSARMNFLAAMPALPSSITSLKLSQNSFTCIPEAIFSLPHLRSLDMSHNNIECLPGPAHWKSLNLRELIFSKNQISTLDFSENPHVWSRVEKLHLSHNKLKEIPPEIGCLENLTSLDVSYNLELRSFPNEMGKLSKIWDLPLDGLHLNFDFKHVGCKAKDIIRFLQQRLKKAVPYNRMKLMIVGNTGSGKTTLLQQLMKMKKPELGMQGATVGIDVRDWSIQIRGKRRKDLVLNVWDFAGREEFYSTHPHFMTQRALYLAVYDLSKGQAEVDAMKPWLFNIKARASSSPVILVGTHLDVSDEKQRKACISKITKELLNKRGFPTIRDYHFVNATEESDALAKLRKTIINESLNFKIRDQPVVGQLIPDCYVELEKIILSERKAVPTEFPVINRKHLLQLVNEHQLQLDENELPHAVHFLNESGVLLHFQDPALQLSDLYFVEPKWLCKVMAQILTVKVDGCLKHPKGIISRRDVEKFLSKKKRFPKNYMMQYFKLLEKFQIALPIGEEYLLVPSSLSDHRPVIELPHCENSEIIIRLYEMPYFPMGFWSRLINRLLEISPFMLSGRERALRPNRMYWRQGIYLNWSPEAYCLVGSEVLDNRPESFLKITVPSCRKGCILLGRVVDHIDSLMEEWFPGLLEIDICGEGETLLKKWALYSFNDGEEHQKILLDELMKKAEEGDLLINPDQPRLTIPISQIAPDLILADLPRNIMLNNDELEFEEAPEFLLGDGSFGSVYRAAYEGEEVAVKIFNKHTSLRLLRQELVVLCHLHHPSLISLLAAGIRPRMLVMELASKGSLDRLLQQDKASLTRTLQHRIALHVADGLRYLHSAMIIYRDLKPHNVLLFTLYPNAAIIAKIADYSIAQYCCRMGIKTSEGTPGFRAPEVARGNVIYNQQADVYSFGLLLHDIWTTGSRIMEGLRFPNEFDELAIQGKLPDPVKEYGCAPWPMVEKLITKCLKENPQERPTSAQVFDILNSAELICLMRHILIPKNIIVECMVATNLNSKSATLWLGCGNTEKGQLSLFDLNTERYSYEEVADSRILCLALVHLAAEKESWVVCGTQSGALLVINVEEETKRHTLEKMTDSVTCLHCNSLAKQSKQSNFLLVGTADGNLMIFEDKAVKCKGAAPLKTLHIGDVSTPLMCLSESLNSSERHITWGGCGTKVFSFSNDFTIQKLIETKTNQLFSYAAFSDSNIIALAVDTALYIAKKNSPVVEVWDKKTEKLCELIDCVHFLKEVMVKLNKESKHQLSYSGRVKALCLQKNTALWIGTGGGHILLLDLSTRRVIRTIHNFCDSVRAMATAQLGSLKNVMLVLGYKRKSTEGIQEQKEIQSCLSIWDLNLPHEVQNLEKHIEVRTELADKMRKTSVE

Sequence of LRRK2 (Q5S007 whole entry, the tested form may be a part): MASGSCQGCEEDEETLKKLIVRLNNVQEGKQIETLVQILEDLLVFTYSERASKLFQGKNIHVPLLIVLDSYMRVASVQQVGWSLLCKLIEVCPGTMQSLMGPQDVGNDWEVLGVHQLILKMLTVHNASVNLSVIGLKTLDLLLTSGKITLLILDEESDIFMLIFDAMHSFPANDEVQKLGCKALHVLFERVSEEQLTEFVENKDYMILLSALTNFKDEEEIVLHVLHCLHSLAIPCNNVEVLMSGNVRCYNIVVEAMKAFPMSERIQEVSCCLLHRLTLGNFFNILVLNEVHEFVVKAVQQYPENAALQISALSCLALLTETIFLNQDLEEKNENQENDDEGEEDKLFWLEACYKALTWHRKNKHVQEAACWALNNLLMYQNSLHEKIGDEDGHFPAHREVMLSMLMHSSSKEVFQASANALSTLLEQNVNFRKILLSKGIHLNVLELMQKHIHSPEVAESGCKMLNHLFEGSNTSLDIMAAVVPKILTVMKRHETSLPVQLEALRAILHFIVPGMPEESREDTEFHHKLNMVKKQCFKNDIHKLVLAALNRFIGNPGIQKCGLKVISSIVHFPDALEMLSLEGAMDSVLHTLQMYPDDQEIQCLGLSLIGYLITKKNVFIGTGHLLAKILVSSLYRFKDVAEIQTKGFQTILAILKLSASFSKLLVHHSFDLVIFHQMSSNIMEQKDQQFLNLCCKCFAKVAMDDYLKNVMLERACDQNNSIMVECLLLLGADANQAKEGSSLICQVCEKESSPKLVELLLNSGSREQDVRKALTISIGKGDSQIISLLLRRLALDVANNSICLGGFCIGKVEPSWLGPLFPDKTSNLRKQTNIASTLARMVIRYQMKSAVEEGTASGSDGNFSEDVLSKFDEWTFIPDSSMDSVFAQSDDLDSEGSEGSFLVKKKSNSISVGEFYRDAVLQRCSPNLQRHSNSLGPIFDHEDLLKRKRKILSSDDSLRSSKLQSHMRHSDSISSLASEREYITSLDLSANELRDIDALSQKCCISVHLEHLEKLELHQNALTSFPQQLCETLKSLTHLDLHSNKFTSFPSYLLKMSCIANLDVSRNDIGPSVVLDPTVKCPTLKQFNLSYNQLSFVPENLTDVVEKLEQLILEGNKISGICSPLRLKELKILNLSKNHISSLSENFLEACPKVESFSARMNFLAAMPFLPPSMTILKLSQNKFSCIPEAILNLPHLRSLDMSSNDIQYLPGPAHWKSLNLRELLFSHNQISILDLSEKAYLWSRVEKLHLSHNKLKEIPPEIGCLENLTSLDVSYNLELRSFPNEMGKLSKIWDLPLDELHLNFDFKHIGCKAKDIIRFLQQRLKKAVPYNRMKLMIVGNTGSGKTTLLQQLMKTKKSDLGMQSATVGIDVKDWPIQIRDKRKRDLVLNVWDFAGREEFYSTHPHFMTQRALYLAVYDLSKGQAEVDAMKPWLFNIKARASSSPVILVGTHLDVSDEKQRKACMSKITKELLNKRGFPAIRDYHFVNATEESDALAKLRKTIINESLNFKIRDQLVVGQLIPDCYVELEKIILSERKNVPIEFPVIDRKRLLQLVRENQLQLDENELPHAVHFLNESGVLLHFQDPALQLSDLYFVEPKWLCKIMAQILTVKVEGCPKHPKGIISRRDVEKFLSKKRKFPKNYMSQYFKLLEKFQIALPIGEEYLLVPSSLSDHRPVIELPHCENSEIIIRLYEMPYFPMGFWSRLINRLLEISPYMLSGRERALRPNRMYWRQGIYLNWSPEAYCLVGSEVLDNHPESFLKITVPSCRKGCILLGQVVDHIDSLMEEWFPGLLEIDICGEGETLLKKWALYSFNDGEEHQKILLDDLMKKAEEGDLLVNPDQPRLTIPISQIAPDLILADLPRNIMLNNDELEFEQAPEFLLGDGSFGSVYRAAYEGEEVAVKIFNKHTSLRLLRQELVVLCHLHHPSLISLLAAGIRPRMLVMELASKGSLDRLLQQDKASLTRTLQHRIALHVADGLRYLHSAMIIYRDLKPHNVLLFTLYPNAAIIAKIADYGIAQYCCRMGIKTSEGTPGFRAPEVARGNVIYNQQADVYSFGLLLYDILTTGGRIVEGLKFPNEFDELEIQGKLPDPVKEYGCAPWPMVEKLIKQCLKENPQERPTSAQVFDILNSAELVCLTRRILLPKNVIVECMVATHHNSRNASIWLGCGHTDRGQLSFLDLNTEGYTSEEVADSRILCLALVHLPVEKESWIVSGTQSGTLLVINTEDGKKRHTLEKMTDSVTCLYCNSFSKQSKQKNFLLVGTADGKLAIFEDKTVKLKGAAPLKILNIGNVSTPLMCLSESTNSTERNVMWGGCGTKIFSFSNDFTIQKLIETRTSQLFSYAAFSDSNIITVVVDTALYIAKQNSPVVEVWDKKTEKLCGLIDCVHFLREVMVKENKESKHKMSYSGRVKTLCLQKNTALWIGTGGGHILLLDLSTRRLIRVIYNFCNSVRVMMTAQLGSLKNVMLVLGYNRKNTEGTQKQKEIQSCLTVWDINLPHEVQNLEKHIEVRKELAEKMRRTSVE

With CNc1nc(Nc2ccc(C(=O)N3CCN(CCOCCOCCSC(C)(C)[C@H](NC(=O)C4(F)CC4)C(=O)N4C[C@H](O)C[C@H]4C(=O)NCc4ccc(-c5scnc5C)cc4)CC3)cc2OC)ncc1Cl [SD75, (2S,4R)-1-((R)-3-((2-(2-(2-(4-(4-((5-chloro-4-(methylamino)pyrimidin-2-yl)amino)-3-methoxybenzoyl)piperazin-1-yl)ethoxy)ethoxy)ethyl)thio)-2-(1-fluorocyclopropane-1-carboxamido)-3-methylbutanoyl)-4-hydroxy-N-(4-(4-methylthiazol-5-yl)benzyl)pyrrolidine-2-carboxamide] the IC50 [1] was 1100 nM and the “Dmax on G2019S MEFs” value ([2]; 24 h treatment) was 43%.

In the case of CNc1nc(Nc2ccc(C(=O)N3CCN(C[C@H]4CC[C@H](CSC(C)(C)[C@H](NC(=O)C5(F)CC5)C(=O)N5C[C@H](O)CC5C(=O)NCc5ccc(-c6scnc6C)cc5)CC4)CC3)cc2OC)ncc1Cl (stereo partly drawn) [XL01126, (2S,4R)-1-((R)-3-((((1R,4R)-4-((4-(4-((5-chloro-4-(methylamino)pyrimidin-2-yl)amino)-3-methoxybenzoyl)piperazin-1-yl)methyl)cyclohexyl)methyl)thio)-2-(1-fluorocyclopropane-1-carboxamido)-3-methylbutanoyl)-4-hydroxy-N-(4-(4-methylthiazol-5-yl)benzyl)pyrrolidine-2-carboxamide], the IC50 [1] is reported as 2000 nM, the DC50 ([2]; 4 h treatment) is reported as 14 nM and the “Dmax on G2019S MEFs” value ([2]; 4 h treatment) is reported as 80-90%.

CNc1nc(Nc2ccc(C(=O)N3CCN(C[C@H]4CC[C@@H](CSC(C)(C)[C@H](NC(=O)C5(F)CC5)C(=O)N5C[C@H](O)CC5C(=O)NCc5ccc(-c6scnc6C)cc5)CC4)CC3)cc2OC)ncc1Cl (some centres unmarked) [XL01134] was tested, and the IC50 [1] was 1100 nM, the DC50 ([2]; 4 h treatment) was 7 nM and the “Dmax on G2019S MEFs” value ([2]; 4 h treatment) was 78%.

From US20260001875A1, “AMINOPYRIMIDINYL DERIVATIVES FOR THE TREATMENT OF PARKINSON'S DISEASE” (UNIVERSITY OF DUNDEE, priority 2022, published 2026)
